Source: patent publication US9376470B2, “Polypeptide having angiogenesis-inducing activity and antibacterial activity, and use thereof for medical purposes” (FunPep Inc., priority 2008, dated 2016)
Peptide text beside a SMILES is read from it.

System: human vascular endothelial cells and fibroblast cells (co-culture, Angiogenesis Kit KZ-1000)
Conditions: polypeptide 10 μg/mL, day 11 of culture
Protocol: Using AG30-5C as a positive control, the angiogenesis-inducing activity of SR-1 and SR-2 was measured. […] As a negative control, polypeptide-free group (Control) was used.
Cells were cultured at 37° C. under 5% CO2 in a 24-well plate using the special media to which the polypeptide was added. The medium was replaced with a medium containing the same polypeptide on day 4, day 7 and day 9 of culture. On day 11 from the beginning of the culture, the medium was removed and staining was performed using a kit for staining lumina (for CD31 antibody staining) according to the following procedure.
The primary antibody (mouse anti-human CD31 antibody) was 4000-fold diluted with a blocking solution (Dulbecco's phosphate buffered saline (PBS(−)) containing 1% BSA). To each well, 0.5 mL of this primary antibody solution was added, and the plate was incubated for 60 minutes at 37° C. After the completion of the incubation, each well was washed totally 3 times with 1 mL of the blocking solution.
Then, 0.5 mL of a secondary antibody solution (goat anti-mouse IgG/alkaline phosphatase conjugate) 500-fold diluted with the blocking solution was added to each well. The plate was incubated for 60 minutes at 37° C., and thereafter each well was washed 3 times with 1 mL of distilled water. During that period, 2 tablets of BCIP/NBT were dissolved into distilled water, and the obtained solution was filtered through a filter having a pore size of 0.2 μm to prepare a substrate solution. To each well, 0.5 mL of the prepared BCIP/NBT substrate solution was added, and the plate was incubated at 37° C. until the lumina turned to deep purple (typically for 5-10 minutes). After the completion of the incubation, each well was washed 3 times with 1 mL of distilled water. After washing, the washing solution was removed by aspiration, and the plate was left to stand and dry naturally. After drying, photographs of each well were taken under a microscope.
Each of the obtained images was quantified using an angiogenesis quantification software. Computer analysis was carried out on various parameters.

CC[C@H](C)[C@H](NC(=O)[C@H](CC(C)C)NC(=O)[C@H](CCCCN)NC(=O)[C@H](CC(C)C)NC(=O)[C@@H](N)CCSC)C(=O)N[C@@H](Cc1ccccc1)C(=O)N[C@@H](CC(C)C)C(=O)N[C@@H](Cc1c[nH]cn1)C(=O)N[C@@H](CCCNC(=N)N)C(=O)N[C@@H](CC(C)C)C(=O)N[C@@H](CCCCN)C(=O)N[C@@H](CCCNC(=N)N)C(=O)N[C@@H](CCSC)C(=O)N[C@@H](CCCNC(=N)N)C(=O)N[C@@H](CCCCN)C(=O)N[C@@H](CCCNC(=N)N)C(=O)N[C@@H](CC(C)C)C(=O)N[C@@H](CCCCN)C(=O)N[C@@H](CCCNC(=N)N)C(=O)N[C@@H](CCCCN)C(=O)N[C@@H](CC(C)C)C(=O)N[C@@H](CCCNC(=N)N)C(=O)N[C@@H](Cc1ccccc1)C(=O)N[C@@H](Cc1c[nH]c2ccccc12)C(=O)N[C@@H](Cc1c[nH]cn1)C(=O)N[C@@H](CCCNC(=N)N)C(=O)N[C@@H](CCCCN)C(=O)N[C@@H](CCCNC(=N)N)C(=O)N[C@@H](Cc1ccc(O)cc1)C(=O)N[C@@H](CCCCN)C(=O)O [AG30-5C, reference compound] (H-MLKLIFLHRLKRMRKRLKRKLRFWHRKRYK-OH; N-terminus and C-terminus assumed)
The Length of Lumina (Percentage when taking Control as 100): 119.1%
